# Experimental data as given in patent US20230203063A1, “TRICYCLIC PYRIDONES AND PYRIMIDONES” (Erasca, Inc., priority 2019, published 2023).
# Target: T1, mutant G12C K-RAS (Homo sapiens, UniProt P01116, G12C)
# T1 construct: made in house; host or cells: E. coli BL21
# Experiment: covalent adduct formation (CAF) with mutant G12C K-RAS
# Type: binding
# Design: covalent adduct formation (CAF): unit not given here
# Settings: Table 7; 10 micromolar, after 60 minutes
# Protocol: Embodiments disclosed herein are further illustrated by the following examples in Tables 1-4 and the Examples hereinbelow. The Tables indicate the compound number, structure, the observed mass spectral molecular weight peak, and covalent adduct formation (CAF) with a mutant G12C K-RAS after 60 minutes at a concentration of 10 micromolar.
row,Compound,covalent adduct formation (CAF)
1,"C=CC(=O)N1CCN(c2nc(=O)n3c4c(c(-c5c(F)cc(F)cc5F)c(Cl)cc24)SC[C@H]3CC2CCN(C)CC2)[C@@H](C)C1 [Example 344, (R)-7-((S)-4-acryloyl-2-methylpiperazin-1-yl)-9-chloro-3-((1-methylpiperidin-4-yl)-methyl)-10-(2,4,6-trifluorophenyl)-2H-[1,4]thiazino[2,3,4-ij]-quinazolin-5(3H)-one]",94.8
2,"C=CC(=O)N1CCN(c2nc(=O)n3c4c(c(-c5ccc(F)cc5F)c(Cl)cc24)SC[C@H]3CC2CCN(C)CC2)[C@@H](C)C1 [Example 345, (3R)-7-((S)-4-acryloyl-2-methylpiperazin-1-yl)-9-chloro-10-(2,4-difluorophenyl)-3-((1-methylpiperidin-4-yl)-methyl)-2H-[1,4]-thiazino-[2,3,4-ij]-quinazolin-5(3H)-one]",82.4
3,"C=CC(=O)N1CCN(c2nc(=O)n3c4c(c(-c5ccc(F)cc5F)c(Cl)cc24)SC[C@H]3CN2CCN(CC)CC2)[C@@H](C)C1 [Example 346, (3R)-7-((S)-4-acryloyl-2-methylpiperazin-1-yl)-9-chloro-10-(2,4-difluorophenyl)-3-((4-ethylpiperazin-1-yl)-methyl)-2H-[1,4]-thiazino[2,3,4-ij]-quinazolin-5(3H)-one]",79.3
